Test [1] has as its target T1, HiBiT-BRM fusion protein in stable HeLa cell line (Homo sapiens, UniProt P51531).
T1 construct: expressed in transfected cells
As to the kind of experiment: HiBiT-BRM cell-based degradation assay (Nano-Glo HiBiT Lytic Detection, 24 h). The arrangement: DC50: scale not given here. The following applies: HeLa HiBiT-BRM cells; for DC50: read-out: BRM HiBit Degradation IC50; for BRM HiBit Degradation Maximum (%): top dose 30 μM. A digest of the protocol: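 Stable HiBiT-BRM HeLa cells were treated with 10-point 3-fold serial dilutions (30 μM final top dose, duplicate) for 24 h, then lysed with LgBiT-containing detection reagent and luminescence read. Degradation % was normalised to DMSO (high control) and 2 μM reference BRM/BRG1 degrader (low control).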

Test [2] has as its target T2, HiBit-BRG1 fusion protein in stable HeLa cell line expressing HiBit-BRG1 and LgBit (Homo sapiens, UniProt P51532).
T2 construct: expressed in transfected cells
As to the kind of experiment: HiBiT-BRG1 cell-based degradation assay (Nano-Glo HiBiT, 24 h). The following applies: HeLa HiBit-BRG1/LgBit cells; for DC50: read-out: BRMG1 HiBit Degradation IC50; for Dmax: top dose 30 μM, read-out: BRG1 HiBit Degradation Maximum (%). The method in brief:
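Stable HeLa line co-expressing HiBiT-BRG1 and LgBiT, compound-treated 24 h; luminescence read after Nano-Glo HiBiT lytic reagent. % degradation normalised between DMSO (high control) and 2 μM reference BRM/BRG1 degrader (low control).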

T2 sequence (P51532 whole entry, the tested form may be a part): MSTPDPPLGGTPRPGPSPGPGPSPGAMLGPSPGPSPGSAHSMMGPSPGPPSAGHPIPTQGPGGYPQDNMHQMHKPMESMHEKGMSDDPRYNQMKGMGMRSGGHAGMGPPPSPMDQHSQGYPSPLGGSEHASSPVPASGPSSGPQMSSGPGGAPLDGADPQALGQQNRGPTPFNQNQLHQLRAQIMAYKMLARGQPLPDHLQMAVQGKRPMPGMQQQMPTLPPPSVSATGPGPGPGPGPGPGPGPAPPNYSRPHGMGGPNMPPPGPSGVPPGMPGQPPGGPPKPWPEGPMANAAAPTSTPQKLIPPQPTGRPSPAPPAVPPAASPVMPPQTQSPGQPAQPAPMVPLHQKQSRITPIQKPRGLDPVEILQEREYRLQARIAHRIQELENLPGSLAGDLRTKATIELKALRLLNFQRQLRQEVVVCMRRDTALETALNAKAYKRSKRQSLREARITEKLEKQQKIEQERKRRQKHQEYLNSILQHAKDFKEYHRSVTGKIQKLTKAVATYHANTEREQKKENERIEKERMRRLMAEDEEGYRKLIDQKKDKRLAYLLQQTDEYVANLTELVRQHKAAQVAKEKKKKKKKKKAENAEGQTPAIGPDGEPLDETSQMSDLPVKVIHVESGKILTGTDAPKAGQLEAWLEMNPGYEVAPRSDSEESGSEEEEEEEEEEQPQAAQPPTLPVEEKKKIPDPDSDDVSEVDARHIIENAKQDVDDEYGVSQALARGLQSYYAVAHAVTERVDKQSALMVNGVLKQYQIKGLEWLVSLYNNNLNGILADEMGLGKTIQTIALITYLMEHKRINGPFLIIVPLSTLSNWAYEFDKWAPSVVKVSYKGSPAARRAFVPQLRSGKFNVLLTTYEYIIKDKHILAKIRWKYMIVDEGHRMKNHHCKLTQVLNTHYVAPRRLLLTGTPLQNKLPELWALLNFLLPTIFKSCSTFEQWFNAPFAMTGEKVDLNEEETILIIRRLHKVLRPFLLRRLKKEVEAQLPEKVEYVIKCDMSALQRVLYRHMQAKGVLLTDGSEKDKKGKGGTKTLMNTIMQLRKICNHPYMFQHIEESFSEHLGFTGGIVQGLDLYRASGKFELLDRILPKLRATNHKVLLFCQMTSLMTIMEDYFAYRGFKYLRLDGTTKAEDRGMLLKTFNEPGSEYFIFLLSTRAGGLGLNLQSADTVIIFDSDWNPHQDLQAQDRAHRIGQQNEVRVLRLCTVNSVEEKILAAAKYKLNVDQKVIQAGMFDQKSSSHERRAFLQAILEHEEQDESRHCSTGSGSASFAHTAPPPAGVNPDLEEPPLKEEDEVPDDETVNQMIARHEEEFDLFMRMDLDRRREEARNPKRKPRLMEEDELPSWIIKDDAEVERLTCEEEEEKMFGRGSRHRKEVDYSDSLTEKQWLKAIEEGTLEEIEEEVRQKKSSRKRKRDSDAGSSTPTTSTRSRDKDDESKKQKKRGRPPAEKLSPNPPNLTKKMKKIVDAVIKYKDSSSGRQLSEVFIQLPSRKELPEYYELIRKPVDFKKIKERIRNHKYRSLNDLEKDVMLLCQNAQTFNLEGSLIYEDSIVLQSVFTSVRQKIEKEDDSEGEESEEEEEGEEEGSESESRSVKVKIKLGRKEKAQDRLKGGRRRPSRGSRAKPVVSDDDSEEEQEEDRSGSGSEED
T1 sequence (P51531 whole entry, the tested form may be a part): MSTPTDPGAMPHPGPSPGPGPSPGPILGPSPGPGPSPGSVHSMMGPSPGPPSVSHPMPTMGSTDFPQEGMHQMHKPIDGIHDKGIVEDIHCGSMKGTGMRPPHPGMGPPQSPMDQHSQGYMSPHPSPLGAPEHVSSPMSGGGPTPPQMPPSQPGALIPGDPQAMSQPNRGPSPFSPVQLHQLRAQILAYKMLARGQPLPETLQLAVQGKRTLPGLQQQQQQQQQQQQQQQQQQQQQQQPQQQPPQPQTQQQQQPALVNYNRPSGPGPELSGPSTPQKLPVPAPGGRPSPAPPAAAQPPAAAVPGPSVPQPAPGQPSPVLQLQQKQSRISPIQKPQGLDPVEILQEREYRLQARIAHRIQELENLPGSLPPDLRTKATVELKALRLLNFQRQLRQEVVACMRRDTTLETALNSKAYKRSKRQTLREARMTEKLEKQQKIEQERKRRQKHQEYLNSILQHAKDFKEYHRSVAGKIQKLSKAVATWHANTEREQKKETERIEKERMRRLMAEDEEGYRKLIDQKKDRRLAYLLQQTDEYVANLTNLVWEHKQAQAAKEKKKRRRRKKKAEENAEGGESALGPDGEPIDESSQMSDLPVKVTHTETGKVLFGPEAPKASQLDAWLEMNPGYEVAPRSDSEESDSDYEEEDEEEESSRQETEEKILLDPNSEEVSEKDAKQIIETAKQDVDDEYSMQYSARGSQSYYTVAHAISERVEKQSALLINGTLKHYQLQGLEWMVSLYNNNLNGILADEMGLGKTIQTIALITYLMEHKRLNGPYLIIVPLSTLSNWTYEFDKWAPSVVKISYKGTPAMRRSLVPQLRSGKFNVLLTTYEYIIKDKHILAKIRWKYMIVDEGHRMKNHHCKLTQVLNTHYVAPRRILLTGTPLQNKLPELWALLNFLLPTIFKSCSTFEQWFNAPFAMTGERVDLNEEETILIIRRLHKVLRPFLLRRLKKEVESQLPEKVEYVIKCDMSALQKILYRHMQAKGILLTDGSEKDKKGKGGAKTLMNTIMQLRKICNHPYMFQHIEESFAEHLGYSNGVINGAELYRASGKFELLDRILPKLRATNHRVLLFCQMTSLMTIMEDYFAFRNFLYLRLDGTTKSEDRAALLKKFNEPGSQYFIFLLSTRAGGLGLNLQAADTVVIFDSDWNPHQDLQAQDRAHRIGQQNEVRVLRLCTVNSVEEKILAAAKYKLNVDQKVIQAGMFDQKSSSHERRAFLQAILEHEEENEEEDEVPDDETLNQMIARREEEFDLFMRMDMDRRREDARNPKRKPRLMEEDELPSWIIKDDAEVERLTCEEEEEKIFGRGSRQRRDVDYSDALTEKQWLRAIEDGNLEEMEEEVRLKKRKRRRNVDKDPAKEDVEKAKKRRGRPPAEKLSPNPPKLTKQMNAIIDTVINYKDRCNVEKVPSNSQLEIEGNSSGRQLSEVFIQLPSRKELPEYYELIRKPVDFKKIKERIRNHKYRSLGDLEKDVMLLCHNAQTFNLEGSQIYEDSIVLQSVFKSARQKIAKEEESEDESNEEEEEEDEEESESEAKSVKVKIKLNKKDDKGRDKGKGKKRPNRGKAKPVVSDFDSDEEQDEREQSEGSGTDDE

As for `Cc1ncsc1-c1ccc([C@H](C)NC(=O)[C@@H]2C[C@@H](O)CN2C(=O)[C@@H](c2cc(N3CC4=C(CN(c5ccc6cc(-c7ccccc7O)nnc6c5)C4)C3)no2)C(C)C)cc1` [Compound 228, (2S,4R)-4-hydroxy-1-((R)-2-(3-(5-(3-(2-hydroxyphenyl)cinnolin-7-yl)-3,4,5,6-tetrahydropyrrolo[3,4-c]pyrrol-2(1H)-yl)isoxazol-5-yl)-3-methylbutanoyl)-N-((S)-1-(4-(4-methylthiazol-5-yl)phenyl)ethyl)pyrrolidine-2-carboxamide], in test [1], the DC50 was less than 10 nM and the “BRM HiBit Degradation Maximum (%)” value was “A (“A” indicates maximum degradation ≥75%)”. In test [2], the DC50 is less than 10 nM and the Dmax is greater than 75%.

Turning to `Cc1ncsc1-c1ccc([C@H](C)NC(=O)[C@@H]2C[C@@H](O)CN2C(=O)C(C(C)C)n2cc(N3CCC4(CC3)CCN4c3ccc4nnc(-c5ccccc5O)cc4c3)nn2)cc1` (some centres unmarked) [Compound 278], in test [1], the DC50 was less than 10 nM and the “BRM HiBit Degradation Maximum (%)” value is recorded as “A (“A” indicates maximum degradation ≥75%)”. In test [2], the DC50 is greater than 10 nM and the Dmax was greater than 50%.

Consider `Cc1ncsc1-c1ccc([C@H](C)NC(=O)[C@@H]2C[C@@H](O)CN2C(=O)[C@H](C(C)C)n2cc(C3CC4(C3)CN(c3ccc5cc(-c6ccccc6O)nnc5c3)C4)nn2)cc1` [Compound 186, (2S,4R)-4-hydroxy-1-[(2S)-2-(4-{2-[3-(2-hydroxyphenyl)cinnolin-7-yl]-2-azaspiro[3.3]heptan-6-yl}-1,2,3-triazol-1-yl)-3-methylbutanoyl]-N-[(1S)-1-[4-(4-methyl-1,3-thiazol-5-yl)phenyl]ethyl]pyrrolidine-2-carboxamide], for which, in test [1], the DC50 is less than 10 nM and the “BRM HiBit Degradation Maximum (%)” value was “A (“A” indicates maximum degradation ≥75%)”. In addition, in test [2], the DC50 is less than 10 nM and the Dmax is greater than 75%.

Turning to `Cc1ncsc1-c1ccc([C@H](C)NC(=O)[C@@H]2C[C@@H](O)CN2C(=O)[C@@H](c2cc(N3CCC4(CC3)CC(N(C)c3ccc5cc(-c6ccccc6O)nnc5c3)C4)no2)C(C)C)cc1` [Compound 122, (2S,4R)-4-hydroxy-1-((R)-2-(3-(2-((3-(2-hydroxyphenyl)cinnolin-7-yl)(methyl)amino)-7-azaspiro[3.5]nonan-7-yl)isoxazol-5-yl)-3-methylbutanoyl)-N-((S)-1-(4-(4-methylthiazol-5-yl)phenyl)ethyl)pyrrolidine-2-carboxamide], in test [1], the DC50 was less than 10 nM and the “BRM HiBit Degradation Maximum (%)” value was “A (“A” indicates maximum degradation ≥75%)”. Besides, in test [2], the DC50 is less than 10 nM and the Dmax was greater than 75%.

Take `Cc1ncsc1-c1ccc([C@H](C)NC(=O)[C@@H]2C[C@@H](O)CN2C(=O)[C@H](c2cc(-c3cnc(N4CC(c5ccc6cc(-c7ccccc7O)nnc6c5)C4)nc3)no2)C(C)C)cc1` [Compound 12, (2S,4R)-4-hydroxy-1-[(2S)-2-[3-(2-{3-[3-(2-hydroxyphenyl)cinnolin-7-yl]azetidin-1-yl}pyrimidin-5-yl)-1,2-oxazol-5-yl]-3-methylbutanoyl]-N-[(1S)-1-[4-(4-methyl-1,3-thiazol-5-yl)phenyl]ethyl]pyrrolidine-2-carboxamide]: in test [1], the DC50 was greater than 100 nM and the “BRM HiBit Degradation Maximum (%)” value was “C (“C” indicates maximum degradation <50%)”. Also, the Dmax in test [2] was less than 50%.

On to `Cc1ncsc1-c1ccc([C@H](C)NC(=O)[C@@H]2C[C@@H](O)CN2C(=O)[C@@H](c2cc(N3CCN([C@@H]4CCN(c5ccc6cc(-c7ccccc7O)nnc6c5)CC4(F)F)CC3)no2)C(C)C)cc1` [Compound 107, (2S,4R)-1-((R)-2-(3-(4-((R)-3,3-difluoro-1-(3-(2-hydroxyphenyl)cinnolin-7-yl)piperidin-4-yl)piperazin-1-yl)isoxazol-5-yl)-3-methylbutanoyl)-4-hydroxy-N-((S)-1-(4-(4-methylthiazol-5-yl)phenyl)ethyl)pyrrolidine-2-carboxamide], for which, in test [1], the DC50 was less than 10 nM and the “BRM HiBit Degradation Maximum (%)” value is “A (“A” indicates maximum degradation ≥75%)”. Also, in test [2], the DC50 was less than 10 nM and the Dmax is greater than 75%.

Consider `Cc1ncsc1-c1ccc([C@H](C)NC(=O)[C@@H]2C[C@@H](O)CN2C(=O)[C@H](C(C)C)n2cc(N3CCN4CCN(c5ccc6cc(-c7ccccc7O)nnc6c5)C[C@H]4C3)nn2)cc1` [Compound 198], for which, in test [1], the DC50 was less than 10 nM and the “BRM HiBit Degradation Maximum (%)” value was “A (“A” indicates maximum degradation ≥75%)”. Moreover, in test [2], the DC50 was less than 10 nM and the Dmax was greater than 75%.

On to `Cc1ncsc1-c1ccc([C@H](C)NC(=O)[C@@H]2C[C@@H](O)CN2C(=O)C(C(C)C)n2cc(N3CCC4(CCN(c5ccc6nnc(-c7ccccc7O)cc6c5)CC4)C3)nn2)cc1` (some centres unmarked) [Compound 279], for which, in test [1], the DC50 is less than 10 nM and the “BRM HiBit Degradation Maximum (%)” value is “A (“A” indicates maximum degradation ≥75%)”. In test [2], the DC50 was greater than 10 nM and the Dmax is greater than 75%.

Consider `Cc1ncsc1-c1ccc([C@H](C)NC(=O)[C@@H]2C[C@@H](O)CN2C(=O)[C@@H](c2cc(N3CCC(N4CC(c5ccc6nnc(-c7ccccc7O)cc6c5)C4)CC3)no2)C(C)C)cc1` [Compound 3, (2S,4R)-4-hydroxy-1-((R)-2-(3-(4-(3-(3-(2-hydroxyphenyl)cinnolin-6-yl)azetidin-1-yl)piperidin-1-yl)isoxazol-5-yl)-3-methylbutanoyl)-N-((S)-1-(4-(4-methylthiazol-5-yl)phenyl)ethyl)pyrrolidine-2-carboxamide], for which, in test [1], the DC50 is less than 10 nM and the “BRM HiBit Degradation Maximum (%)” value is given as “A (“A” indicates maximum degradation ≥75%)”. In test [2], the DC50 was less than 10 nM and the Dmax is greater than 75%.

Take `Cc1ncsc1-c1ccc([C@H](C)NC(=O)[C@@H]2C[C@@H](O)CN2C(=O)C(c2cc(N3CCC4(CCC(c5ccc6nnc(-c7ccccc7O)cc6c5)CC4)CC3)no2)C(C)C)cc1` (stereo in doubt) [Compound 63, (2S,4R)-4-hydroxy-1-((S)-2-(3-(9-(3-(2-hydroxyphenyl)cinnolin-6-yl)-3-azaspiro[5.5]undecan-3-yl)isoxazol-5-yl)-3-methylbutanoyl)-N-((S)-1-(4-(4-methylthiazol-5-yl)phenyl)ethyl)pyrrolidine-2-carboxamide]: in test [1], the DC50 is less than 10 nM and the “BRM HiBit Degradation Maximum (%)” value is “A (“A” indicates maximum degradation ≥75%)”. Besides, in test [2], the DC50 is less than 10 nM and the Dmax is greater than 75%.

Regarding `Cc1ncsc1-c1ccc([C@H](C)NC(=O)[C@@H]2C[C@@H](O)CN2C(=O)[C@@H](c2cc(N3CCN([C@H]4CCN(c5ccc6cc(-c7ccccc7O)nnc6c5)CC4(F)F)CC3)no2)C(C)C)cc1` [Compound 115, (2S,4R)-1-((R)-2-(3-(4-((S)-3,3-difluoro-1-(3-(2-hydroxyphenyl)cinnolin-7-yl)piperidin-4-yl)piperazin-1-yl)isoxazol-5-yl)-3-methylbutanoyl)-4-hydroxy-N-((S)-1-(4-(4-methylthiazol-5-yl)phenyl)ethyl)pyrrolidine-2-carboxamide], in test [1], the DC50 is less than 10 nM and the “BRM HiBit Degradation Maximum (%)” value is listed as “A (“A” indicates maximum degradation ≥75%)”. Further, in test [2], the DC50 is less than 10 nM and the Dmax is greater than 75%.

Consider `Cc1ncsc1-c1ccc([C@H](C)NC(=O)[C@@H]2C[C@@H](O)CN2C(=O)[C@@H](c2cc(N3CCC(c4ccc5cc(-c6ccccc6O)nnc5c4)CC3)no2)C(C)C)cc1` [Compound 74, (2S,4R)-4-hydroxy-1-((R)-2-(3-(4-(3-(2-hydroxyphenyl)cinnolin-7-yl)piperidin-1-yl)isoxazol-5-yl)-3-methylbutanoyl)-N-((S)-1-(4-(4-methylthiazol-5-yl)phenyl)ethyl)pyrrolidine-2-carboxamide], for which, in test [1], the DC50 was less than 10 nM and the “BRM HiBit Degradation Maximum (%)” value is listed as “A (“A” indicates maximum degradation ≥75%)”. Also, the Dmax in test [2] was less than 50%.

For `Cc1ncsc1-c1ccc([C@H](C)NC(=O)[C@@H]2C[C@@H](O)CN2C(=O)[C@@H](c2cc(N3CCC4(CC3)CC(Oc3ccc5cc(-c6ccccc6O)nnc5c3)C4)no2)C(C)C)cc1` [Compound 78, (2S,4R)-4-hydroxy-1-((R)-2-(3-(2-((3-(2-hydroxyphenyl)cinnolin-7-yl)oxy)-7-azaspiro[3.5]nonan-7-yl)isoxazol-5-yl)-3-methylbutanoyl)-N-((S)-1-(4-(4-methylthiazol-5-yl)phenyl)ethyl)pyrrolidine-2-carboxamide], in test [1], the DC50 was greater than 10 nM and the “BRM HiBit Degradation Maximum (%)” value is reported as “A (“A” indicates maximum degradation ≥75%)”. Also, in test [2], the Dmax was less than 50%.

With `Cc1ncsc1-c1ccc([C@H](C)NC(=O)[C@@H]2C[C@@H](O)CN2C(=O)[C@@H](c2cc(N3CCC4(CC3)CC(c3ccc5cc(-c6ccccc6O)nnc5c3)C4)no2)C(C)C)cc1` [Compound 26], in test [1], the DC50 is less than 10 nM and the “BRM HiBit Degradation Maximum (%)” value was “A (“A” indicates maximum degradation ≥75%)”. In test [2], the DC50 was greater than 10 nM and the Dmax was greater than 75%.

Take `Cc1ncsc1-c1ccc([C@H](C)NC(=O)[C@@H]2C[C@@H](O)CN2C(=O)[C@H](C(C)C)n2cnc(N3CC4(CN(c5ccc6cc(-c7ccccc7O)nnc6c5)C4)C3)c2)cc1` [Compound 271, (2S,4R)-4-hydroxy-1-((S)-2-(4-(6-(3-(2-hydroxyphenyl)cinnolin-7-yl)-2,6-diazaspiro[3.3]heptan-2-yl)-1H-imidazol-1-yl)-3-methylbutanoyl)-N-((S)-1-(4-(4-methylthiazol-5-yl)phenyl)ethyl)pyrrolidine-2-carboxamide]: in test [1], the DC50 is greater than 10 nM and the “BRM HiBit Degradation Maximum (%)” value was “A (“A” indicates maximum degradation ≥75%)”. In addition, the Dmax in test [2] was less than 50%.

Values taken from patent US20260193264A1, “BENZOYPARAZINE PYRAZINES AND THEIR USES” (FOGHORN THERAPEUTICS INC., priority 2022, published 2026).
